Data: patent publication US20050250819A1 (priority 2004, published 2005)

System: Type III protein secretion of the chimeric SopE‘-’Bla polypeptide (SPI1 type III protein secretion system)
Assay: Primary assay: Type III protein secretion of the chimeric SopE'-'Bla polypeptide by Salmonella enterica
Assay type: cell-based
Details: read-out: SopE IC50(μM)
In short: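 Salmonella enterica grown under SPI1-inducing conditions expressed a SopE‘-’Bla fusion, with TEM-1 β-lactamase lacking its signal peptide, with or without test compounds. Nitrocefin added to the cultures was hydrolysed only by the secreted fusion, so the colorimetric signal reports type III secretion, and inhibitors lower it.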

Compound	IC50 [µM]
O=C(N[C@@H](Cc1ccc(Cl)cc1)C(=O)O)/C(=C\c1cccc(C(F)(F)F)c1)NC(=O)c1ccc(Oc2ccccc2)cc1 [Compound 47, (S)-3-(4-Chlorophenyl)-2-[2-(4-phenoxybenzoylamino)-3-(3-trifluoromethyl-phenyl)acryloylamino]propionic acid]	12.4

System: Type III-dependent secretion of ExoU by P. aeruginosa PA103
Assay: Tertiary assay: Type III-dependent secretion of ExoU by P. aeruginosa PA103
Assay type: cell-based
Details: Pseudomonas aeruginosa, ExoU secreted into extracellular medium
Source text: Tertiary assay: inhibition of Type III protein secretion of effectors from a Pseudomonas aeruginosa system. Type III protein secretion is used by P. aeruginosa to secrete several essential virulence determinants. One effector of the type III protein secretion system of P. aeruginosa PA103 is the virulence determinants ExoU.
The amount of Type III-dependent secretion of ExoU by P. aeruginosa PA103 can be determined in a cell-based assay by quantification of the 73.9 kDa ExoU protein secreted into the extracellular medium. Such quantitation can be achieved by growing strain PA103 in a deferrated medium in the presence of nitrilotriacetic acid (an inducer of Type III protein secretion in P. aeruginosa) and either in the presence or absence of putative inhibitors. After a prolonged growth period, the cells are sedimented and the supernatants concentrated by ammonium sulfate precipitation. The proteins in the resuspended pellets are separated by electrophoresis on SDS-polyacrylamide gels. After staining gels with Colloidal Blue™, the 73.9 kDa ExoU band is quantitated by scanning through an imager. The effects of inhibitors on the intensity of the ExoU band may be measured relative to that of untreated controls.

Compound	IC50 [µM]
O=C(N[C@@H](Cc1ccc(Cl)cc1)C(=O)O)/C(=C\c1cccc(C(F)(F)F)c1)NC(=O)c1ccc(Oc2ccccc2)cc1 [Compound 47, (S)-3-(4-Chlorophenyl)-2-[2-(4-phenoxybenzoylamino)-3-(3-trifluoromethyl-phenyl)acryloylamino]propionic acid]	35.1
O=C(N[C@@H](CSCc1ccccc1)C(=O)O)/C(=C\c1ccc(I)cc1)NC(=O)C1CCN(c2nccc(C(F)(F)F)n2)CC1 [Compound 76, (R)-3-Benzylsulfanyl-2-(3-(4-iodophenyl)-2-{[1-(4-trifluoromethylpyrimidin-2-yl)-piperidine-4-carbonyl]amino}acryloylamino)propionic acid]	56.7
O=C(N[C@H](COCc1ccccc1)C(=O)O)/C(=C\c1cccc(C(F)(F)F)c1)NC(=O)C1CCN(c2nccc(C(F)(F)F)n2)CC1 [Compound 77, (R)-3-Benzyloxy-2-(3-(3-trifluoromethylphenyl)-2-{[1-(4-trifluoromethylpyrimidin-2-yl)-piperidine-4-carbonyl]amino}acryloylamino)propionic acid]	60
O=C(N[C@@H](CSCc1ccccc1)C(=O)O)/C(=C\c1cccc(C(F)(F)F)c1)NC(=O)C1CCN(c2nccc(C(F)(F)F)n2)CC1 [Compound 78, (R)-3-Benzylsulfanyl-2-(3-(3-trifluoromethylphenyl)-2-{[1-(4-trifluoromethylpyrimidin-2-yl)piperidine-4-carbonyl]amino}acryloylamino)propionic acid]	67.3
O=C(N[C@H](COCc1ccccc1)C(=O)O)/C(=C\c1ccc(OC(F)(F)F)cc1)NC(=O)C1CCN(c2nccc(C(F)(F)F)n2)CC1 [Compound 83, (R)-3-Benzyloxy-2-(3-(4-trifluoromethoxyphenyl)-2-{[1-(4-trifluoromethyl-pyrimidin-2-yl)piperidine-4-carbonyl]amino}acryloylamino)propionic acid]	84.9
O=C(N[C@@H](CSCc1ccccc1)C(=O)O)/C(=C\c1ccc(OC(F)(F)F)cc1)NC(=O)C1CCN(c2nccc(C(F)(F)F)n2)CC1 [Compound 84, (R)-3-Benzylsulfanyl-2-(3-(4-trifluoromethoxyphenyl)-2-{[1-(4-trifluoromethyl-pyrimidin-2-yl)piperidine-4-carbonyl]amino}acryloylamino)propionic acid]	57.8
O=C(NC(Cc1ccc(Cl)cc1)C(=O)O)/C(=C\c1cccc(C(F)(F)F)c1)NC(=O)c1ccc(-c2ccccc2)cc1 (stereo not shown) [Compound 97]	13
O=C(NC(CCSCc1ccccc1)C(=O)O)/C(=C\c1cccc(C(F)(F)F)c1)NC(=O)c1ccc(-c2ccccc2)cc1 (stereo not shown) [Compound 98]	13
O=C(N[C@@H](CSCc1ccccc1)C(=O)O)/C(=C\c1ccc(Cl)cc1Cl)NC(=O)c1ccc(-c2ccccc2)cc1 [Compound 102]	40
O=C(NC(COCc1ccccc1)C(=O)O)/C(=C\c1ccc(Cl)cc1Cl)NC(=O)c1ccc(-c2ccccc2)cc1 (stereo not shown) [Compound 103]	18
O=C(N[C@@H](CSCc1ccccc1)C(=O)O)/C(=C\c1ccc(Cl)c(Cl)c1)NC(=O)c1ccc(-c2ccccc2)cc1 [Compound 105]	33
O=C(NC(COCc1ccccc1)C(=O)O)/C(=C\c1ccc(Cl)c(Cl)c1)NC(=O)c1ccc(-c2ccccc2)cc1 (stereo not shown) [Compound 106]	20
O=C(N[C@@H](CSCc1ccccc1)C(=O)O)/C(=C\c1ccc(-c2ccccc2)cc1)NC(=O)c1ccc(C(F)(F)F)cc1 [Compound 121]	25
O=C(NC(CCSCc1ccccc1)C(=O)O)/C(=C\c1ccc(-c2ccccc2)cc1)NC(=O)c1ccc(C(F)(F)F)cc1 (stereo not shown) [Compound 122]	25
O=C(NC(COCc1ccccc1)C(=O)O)/C(=C\c1ccc(-c2ccccc2)cc1)NC(=O)c1ccc(C(F)(F)F)cc1 (stereo not shown) [Compound 133]	100
O=C(N[C@@H](CSCc1ccccc1)C(=O)O)/C(=C\c1ccc(Cl)c(Cl)c1)NC(=O)c1ccc(C(F)(F)F)cc1 [Compound 140]	48
O=C(N[C@@H](CSCc1ccccc1)C(=O)O)/C(=C\c1ccc(Cl)cc1Cl)NC(=O)c1ccc(C(F)(F)F)cc1 [Compound 154]	26.4

System: Type III-dependent secretion of SipB (SPI1 type III protein secretion system)
Assay: Secondary assay: Type III-dependent protein secretion of the SipB polypeptide by S. enterica
Assay type: cell-based
Details: Salmonella enterica, read-out: SipB IC50(μM)
Protocol: Secondary assay: Type III-dependent protein secretion of the SipB polypeptide by S. enterica. The SipB protein of S. enterica is another effector of the SPI1 type III protein secretion system from S. enterica. In this cell-based procedure, the Type III-dependent secretion of SipB from the bacterial cytoplasm to the extracellular medium was measured through its reactivity with a cognate mouse monoclonal.
Salmonella enterica cells growing either in the presence or in the absence of inhibitors are induced for the production of SipB. Following an established period of growth the cells are sedimented and the amount of SipB present in the supernatant is quantified with a scanning imager following application of immunoblot techniques. Detection may employ an anti-SipB mouse monoclonal antibody (e.g., obtained from Jorge Galan, SUNY at Stony Brook, N.Y.) followed by treatment with commercially available sheep anti-mouse polyclonal antibody conjugated with horseradish peroxidase. Thereafter the membrane is treated with a peroxidase chemiluminescent substrate and exposed to film for an appropriate exposure time. Inhibition may be measured relative to untreated controls.

Compound	IC50 [µM]
O=C(N[C@H](CO)CSCc1ccccc1)/C(=C\c1ccc(-c2ccccc2)cc1)NC(=O)c1ccc(C(F)(F)F)cc1 [Compound 14]	77.3
